Experimental findings from patent US20180371158A1, “PEPTIDOMIMETIC POLYMERS AS CONTROLLED RELEASE MATRICES FOR SMALL MOLECULES, BIOLOGICALS, SYNTHETIC OR SEMI-SYNTHETIC MACROMOLECULES” (priority 2015, published 2018) are described below.

The data set in a line: Release study of two dyes from electrospun fiber mat immersed in PBS at 37° C., UV absorbance. It is filed as physicochemical. The method, then:
6.36 mg rhodamine B was dissolved in 20 mL PBS. 200 μL solution of this solution was taken and 1.8 mL PBS was added to achieve a 10× dilution. The solution was serially diluted from 100× to 1000×, and the corresponding absorbance of each was measured. Rhodamine B concentration vs absorbance was plotted.
The above solution was diluted to 30, 40, 50, 60, 70, 80, 90, 100, 150, 200× concentrations. UV absorbance was measured for each solution.
In a 20 mL scintillation vial, 2 cm×2 cm fiber mat of the polyester was immersed in 20 ml PBS. The vial was stored in 37° C. incubator. 2 mL PBS was removed at each time point and replaced with 2 mL fresh PBS, and UV absorbance was measured. These measurements were performed in triplicates. Dye release was calculated according to the UV absorbance standard curve.

As to `CCN(CC)c1ccc2c(-c3ccccc3C(=O)O)c3ccc(=[N+](CC)CC)cc-3oc2c1.[Cl-]` [rhodamine B, Rhodamine B], the “cumulative release of dye from fiber mat” value (after day 55, fiber mat of p(mPhe-Keto-BocGlu) mixed with rhodamine B and coumarin dye) is recorded as 17.0±3.2%; the “cumulative release of dye from fiber mat” value (after day 90, fiber mat of p(mPhe-Keto-BocGlu) mixed with rhodamine B and coumarin dye) was 30.4±6.5%; the “cumulative release of dye from fiber mat” value (days 0-7, fiber mat of p(mPhe-Keto-BocGlu) mixed with rhodamine B and coumarin dye) amounted to 7.4±1.6%.
